Test: xn = mol fraction of the nth substance listed
Details: 101.3 kPa

CCCCCC[NH2+]CCN.O=S(=O)([N-]S(=O)(=O)C(F)(F)F)C(F)(F)F + O
Details | electrical conductivity [S/m] | viscosity [mPa·s]
303.15 K, x1 = 0.401 | 0.251 | 51.4
303.15 K, x1 = 0.4387 | 0.209 | 66.6
303.15 K, x1 = 0.5021 | 0.135 | 104
303.15 K, x1 = 0.5762 | 0.066 | 117
303.15 K, x1 = 0.6827 | 0.0619 | 168
303.15 K, x1 = 0.8153 | 0.0416 | 226
303.15 K, x1 = 0.8939 | 0.0284 | 260
308.15 K, x1 = 0.401 | 0.324 | 40.1
308.15 K, x1 = 0.4387 | 0.267 | 51
308.15 K, x1 = 0.5762 | 0.0972 | 86.6
308.15 K, x1 = 0.6827 | 0.085 | 131
308.15 K, x1 = 0.8153 | 0.0537 | 160
308.15 K, x1 = 0.8939 | 0.0432 | 179
313.15 K, x1 = 0.401 | 0.396 | 31.8
313.15 K, x1 = 0.4387 | 0.328 | 39.8
313.15 K, x1 = 0.5021 | 0.221 | 59.1
313.15 K, x1 = 0.5762 | 0.138 | 65.5
313.15 K, x1 = 0.6827 | 0.11 | 97.4
313.15 K, x1 = 0.8153 | 0.0733 | 118
313.15 K, x1 = 0.8939 | 0.056 | 131
318.15 K, x1 = 0.401 | 0.485 | 25.7
318.15 K, x1 = 0.4387 | 0.409 | 31.6
318.15 K, x1 = 0.5021 | 0.278 | 45.9
318.15 K, x1 = 0.6827 | 0.144 | 74.1
318.15 K, x1 = 0.8153 | 0.0987 | 88.2
318.15 K, x1 = 0.8939 | 0.075 | 95.9
323.15 K, x1 = 0.4387 | 0.502 | 25.6
323.15 K, x1 = 0.5021 | 0.34 | 36.3
323.15 K, x1 = 0.5762 | 0.232 | 39.6
323.15 K, x1 = 0.6827 | 0.184 | 57.4
323.15 K, x1 = 0.8153 | 0.13 | 65.4
323.15 K, x1 = 0.8939 | 0.101 | 72.1
328.15 K, x1 = 0.401 | 0.71 | 17.7
328.15 K, x1 = 0.4387 | 0.603 | 20.9
328.15 K, x1 = 0.5762 | 0.288 | 31.6
328.15 K, x1 = 0.8153 | 0.166 | 50.6
328.15 K, x1 = 0.8939 | 0.13 | 55.6
333.15 K, x1 = 0.401 | 0.838 | 15
333.15 K, x1 = 0.4387 | 0.727 | 17.4
333.15 K, x1 = 0.5021 | 0.505 | 23.8
333.15 K, x1 = 0.5762 | 0.372 | 25.7
333.15 K, x1 = 0.6827 | 0.293 | 35.8
333.15 K, x1 = 0.8153 | 0.21 | 39.8
333.15 K, x1 = 0.8939 | 0.169 | 43.6
338.15 K, x1 = 0.401 | 0.973 | 12.8
338.15 K, x1 = 0.4387 | 0.858 | 14.7
338.15 K, x1 = 0.5762 | 0.441 | 21.2
338.15 K, x1 = 0.6827 | 0.359 | 29.2
338.15 K, x1 = 0.8153 | 0.263 | 31.8
338.15 K, x1 = 0.8939 | 0.203 | 36.5
343.15 K, x1 = 0.401 | 1.13 | 11.1
343.15 K, x1 = 0.4387 | 1.01 | 11.9
343.15 K, x1 = 0.5021 | 0.705 | 16.5
343.15 K, x1 = 0.5762 | 0.521 | 17.7
343.15 K, x1 = 0.8939 | 0.255 | 28.2
348.15 K, x1 = 0.4387 | 1.12 | 10.3
348.15 K, x1 = 0.5021 | 0.808 | 14
348.15 K, x1 = 0.6827 | 0.503 | 20.5
348.15 K, x1 = 0.8153 | 0.399 | 21.4
348.15 K, x1 = 0.8939 | 0.31 | 24.4
353.15 K, x1 = 0.401 | 1.47 | 8.8
353.15 K, x1 = 0.4387 | 1.34 | 9
353.15 K, x1 = 0.5021 | 0.908 | 12
353.15 K, x1 = 0.6827 | 0.601 | 16.9
353.15 K, x1 = 0.8153 | 0.37 | 17
353.15 K, x1 = 0.8939 | – | 20.7
